For orientation: IC50 means the point on the concentration scale where inhibition reaches its midpoint.

T1 sequence (Q13304 whole entry): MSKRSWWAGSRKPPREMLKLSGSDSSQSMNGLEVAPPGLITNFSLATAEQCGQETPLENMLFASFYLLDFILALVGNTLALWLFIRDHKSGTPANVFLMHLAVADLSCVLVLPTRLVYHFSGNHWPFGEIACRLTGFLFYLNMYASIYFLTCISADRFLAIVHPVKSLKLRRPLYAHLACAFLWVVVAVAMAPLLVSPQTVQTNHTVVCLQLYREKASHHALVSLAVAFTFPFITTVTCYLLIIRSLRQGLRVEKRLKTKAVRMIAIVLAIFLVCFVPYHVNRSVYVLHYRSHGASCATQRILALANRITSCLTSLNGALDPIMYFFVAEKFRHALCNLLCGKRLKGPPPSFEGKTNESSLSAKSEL

The assay concerns the target T1, human GPR17 receptor (Homo sapiens, UniProt Q13304).
T1 construct: host or cells: HEK-293
Put plainly: Calcium mobilization functional assay (Fluo-8, FLIPR TETRA) in HEK-293 hGPR17 (Gα-q assay). The class given is cell-based. The note with it: antagonism of MDL29,951 (~EC80) induced Ca2+ signal; cell line (HEK-293 hGPR17 or HEK-293 Suchi5 hGPR17) not given. The method, then:
HEK-293 cells stably expressing the human GPR17 receptor (HEK-293 hGPR17) developed by Axxam (Bresso, Milan, Italy) were cultured at 37° C. in a humidified atmosphere of 5% CO2. Cells were grown in EMEM supplemented with FBS (10%), Penicillin/Streptomycin (1%), Ultraglutamine I (2 mM), puromycin (0.6 μg/mL), G418 (0.4 mg/mL), zeocin (50 μg/mL). This cell line was used to test the compound antagonistic activity by monitoring the Gα-q based signaling. Signaling via Gα-q leads to mobilization of calcium from internal stores. Elevated intracellular calcium levels can then be measured with calcium-sensitive fluorescent dyes (e.g., Fluo 8-No Wash Dye).
GPR17 activation leads to both an increase in intracellular calcium (via Gα-q) and a decrease in cAMP levels (via Gα-i), implicating that both of these pathways play a role for in vivo function.
Experiments were performed using the below cell lines, as described in part 1: • HEK-293 hGPR17 (used to study the compounds acting via Gα-q pathway) • HEK-293 Suchi5 hGPR17 (used to study the compounds acting via Gα-i pathway, where the Gα-i signaling is switched to a Gα-q signaling thanks to the Gα-i/q chimera Suchi5)
GPR17 activation was able to induce an endoplasmic reticulum calcium (Ca^2+) store release in cytosol which could be measured using the fluorescent Ca^2+ sensitive dye Fluo-8 No Wash Dye as readout.
HEK-293 hGPR17 and HEK-293 Suchi5 hGPR17 were seeded at a density of 15,000 cells/well into poly-D-lysine coated black 384-well plates with clear bottom in complete medium. Cells were incubated overnight at 37° C. in a humidified atmosphere of 5% CO2. Twenty-four hours after seeding, the culture medium was carefully removed manually and the cells were loaded for 60 minutes at room temperature with the Ca^2+ sensitive Fluo-8 No Wash Dye, according to manufacturer's instructions. Cells were then assayed using a fluorometric imaging plate reader (FLIPR^TETRA). Fluorescence (excitation: 470-495 nm; emission: 515-575 nm) was recorded during the experiment. […] After twenty minutes, a second injection of MDL29,951 at ˜EC80 (500 nM for HEK-293 hGPR17 and 2 nM for HEK-293 Suchi5 hGPR17) in assay buffer was performed at the FLIPR^TETRA and the signal of the emitted fluorescence was recorded for additional 2 minutes. All the compound injections and incubations were performed in duplicate. For data quality and data analysis the Screener® 16.0.6 (Genedata) software was used.
(In general: Calcium assays in cells follow changes in intracellular calcium, usually with a dye or a luminescent sensor.)
With `N#Cc1ccc(NS(=O)(=O)c2c[nH]c(-c3ccccc3)c2)nc1` [Cpd 037, N-(5-cyano-2-pyridyl)-5-phenyl-1H-pyrrole-3-sulfonamide], the concentration for half-maximal inhibition (IC50) fell in the range of 5000 to 50000 nM.
For the compound `N#Cc1ccc(NS(=O)(=O)c2c[nH]c(-c3ccc(F)cc3F)c2)c(F)c1` [Cpd 038, N-(4-cyano-2-fluoro-phenyl)-5-(2,4-difluorophenyl)-1H-pyrrole-3-sulfonamide], the 50% inhibitory concentration (IC50) was less than 500 nM.
On to `N#Cc1ccc(NS(=O)(=O)c2c[nH]c(-c3cccc(Cl)c3F)c2)c(F)c1` [Cpd 039, 5-(3-chloro-2-fluoro-phenyl)-N-(4-cyano-2-fluoro-phenyl)-1H-pyrrole-3-sulfonamide], for which the IC50 is less than 500 nM.
With `N#Cc1ccc(NS(=O)(=O)c2c[nH]c(-c3cccc(F)c3F)c2)c(F)c1` [Cpd 040, N-(4-cyano-2-fluoro-phenyl)-5-(2,3-difluorophenyl)-1H-pyrrole-3-sulfonamide], the half-maximal inhibitory concentration (IC50) is less than 500 nM.
Consider `N#Cc1ccc(NS(=O)(=O)c2c[nH]c(-c3cc(F)ccc3F)c2)c(F)c1` [Cpd 041, N-(4-cyano-2-fluoro-phenyl)-5-(2,5-difluorophenyl)-1H-pyrrole-3-sulfonamide], for which the IC50 was less than 500 nM.
For the compound `Cc1cccc(-c2cc(S(=O)(=O)Nc3ccc(C#N)cc3F)c[nH]2)c1F` [Cpd 042, N-(4-cyano-2-fluoro-phenyl)-5-(2-fluoro-3-methyl-phenyl)-1H-pyrrole-3-sulfonamide], the IC50 is less than 500 nM.
For `Cc1ccc(-c2cc(S(=O)(=O)Nc3ccc(C#N)cc3F)c[nH]2)c(F)c1` [Cpd 043, N-(4-cyano-2-fluoro-phenyl)-5-(2-fluoro-4-methyl-phenyl)-1H-pyrrole-3-sulfonamide], the 50% inhibitory concentration (IC50) is 500 to 5000 nM.
Turning to `Cc1ccc(F)c(-c2cc(S(=O)(=O)Nc3ccc(C#N)cc3F)c[nH]2)c1` [Cpd 044, N-(4-cyano-2-fluoro-phenyl)-5-(2-fluoro-5-methyl-phenyl)-1H-pyrrole-3-sulfonamide], the IC50 is less than 500 nM.
For the compound `N#Cc1ccc(NS(=O)(=O)c2c[nH]c(-c3ccc(Cl)cc3F)c2)c(F)c1` [Cpd 045, 5-(4-chloro-2-fluoro-phenyl)-N-(4-cyano-2-fluoro-phenyl)-1H-pyrrole-3-sulfonamide], the IC50 lay within 500 to 5000 nM.
On to `N#Cc1ccc(NS(=O)(=O)c2c[nH]c(-c3cc(Cl)ccc3F)c2)c(F)c1` [Cpd 046, 5-(5-chloro-2-fluoro-phenyl)-N-(4-cyano-2-fluoro-phenyl)-1H-pyrrole-3-sulfonamide], for which the IC50 was less than 500 nM.
As to `O=S(=O)(Nc1cc(F)c(F)cc1F)c1c[nH]c(-c2ccccc2F)c1` [Cpd 047, 5-(2-fluorophenyl)-N-(2,4,5-trifluorophenyl)-1H-pyrrole-3-sulfonamide], the IC50 lay within 500 to 5000 nM.
To `O=S(=O)(Nc1ncc(Cl)cc1F)c1c[nH]c(-c2ccccc2F)c1` [Cpd 048, N-(5-chloro-3-fluoro-2-pyridyl)-5-(2-fluorophenyl)-1H-pyrrole-3-sulfonamide] belongs 500 to 5000 nM.
In the case of `O=S(=O)(Nc1cccc2c1OCO2)c1c[nH]c(-c2ccccc2F)c1` [Cpd 049, N-(1,3-benzodioxol-4-yl)-5-(2-fluorophenyl)-1H-pyrrole-3-sulfonamide], the 50% inhibitory concentration (IC50) lay in the range of 500 to 5000 nM.
Regarding `O=S(=O)(Nc1cccc2nsnc12)c1c[nH]c(-c2ccccc2F)c1` [Cpd 050, N-(2,1,3-benzothiadiazol-4-yl)-5-(2-fluorophenyl)-1H-pyrrole-3-sulfonamide], the IC50 was less than 500 nM.
For `O=S(=O)(Nc1cc(F)ccc1F)c1c[nH]c(-c2ccccc2F)c1` [Cpd 051, N-(2,5-difluorophenyl)-5-(2-fluorophenyl)-1H-pyrrole-3-sulfonamide], the half-maximal inhibitory concentration (IC50) was in the range of 500 to 5000 nM.
On to `O=S(=O)(Nc1ccc(Cl)cc1F)c1c[nH]c(-c2ccccc2F)c1` [Cpd 052, N-(4-chloro-2-fluoro-phenyl)-5-(2-fluorophenyl)-1H-pyrrole-3-sulfonamide], for which the IC50 lay within 500 to 5000 nM.
Consider `N#CCc1ccc(NS(=O)(=O)c2c[nH]c(-c3ccccc3F)c2)c(F)c1` [Cpd 053, N-[4-(cyanomethyl)-2-fluoro-phenyl]-5-(2-fluorophenyl)-1H-pyrrole-3-sulfonamide], for which the half-inhibitory concentration (IC50) was in the range of 500 to 5000 nM.
For the compound `O=S(=O)(Nc1ccc(F)cc1F)c1c[nH]c(-c2ccccc2F)c1` [Cpd 054, N-(2,4-difluorophenyl)-5-(2-fluorophenyl)-1H-pyrrole-3-sulfonamide], the IC50 fell in the range of 5000 to 50000 nM.
For the compound `O=S(=O)(Nc1ccc(C(F)(F)F)cc1F)c1c[nH]c(-c2ccccc2F)c1` [Cpd 055, 5-(2-fluorophenyl)-N-[2-fluoro-4-(trifluoromethyl)phenyl]-1H-pyrrole-3-sulfonamide], the concentration for half-maximal inhibition (IC50) fell in the range of 500 to 5000 nM.
For `O=S(=O)(Nc1cccc(F)c1F)c1c[nH]c(-c2ccccc2F)c1` [Cpd 056, N-(2,3-difluorophenyl)-5-(2-fluorophenyl)-1H-pyrrole-3-sulfonamide], the concentration for half-maximal inhibition (IC50) was 5000 to 50000 nM.
Take `Cc1ccc(NS(=O)(=O)c2c[nH]c(-c3ccccc3F)c2)c(F)c1` [Cpd 057, N-(2-fluoro-4-methyl-phenyl)-5-(2-fluorophenyl)-1H-pyrrole-3-sulfonamide]: the IC50 fell in the range of 500 to 5000 nM.
For `N#Cc1ccc(NS(=O)(=O)c2c[nH]c(-c3ccccc3F)c2)cc1Cl` [Cpd 058, N-(3-chloro-4-cyano-phenyl)-5-(2-fluorophenyl)-1H-pyrrole-3-sulfonamide], the IC50 lay in the range of 500 to 5000 nM.
Regarding `COc1cc(NS(=O)(=O)c2c[nH]c(-c3ccccc3F)c2)ccc1C#N` [Cpd 059, N-(4-cyano-3-methoxy-phenyl)-5-(2-fluorophenyl)-1H-pyrrole-3-sulfonamide], the half-inhibitory concentration (IC50) was 500 to 5000 nM.
With `COc1cc(C(F)(F)F)cnc1NS(=O)(=O)c1c[nH]c(-c2ccccc2F)c1` [Cpd 060, 5-(2-fluorophenyl)-N-[3-methoxy-5-(trifluoromethyl)pyridin-2-yl]-1H-pyrrole-3-sulfonamide], the half-inhibitory concentration (IC50) fell in the range of 500 to 5000 nM.
`COc1cc(CC#N)cnc1NS(=O)(=O)c1c[nH]c(-c2ccccc2)c1` [Cpd 061, N-[5-(cyanomethyl)-3-methoxypyridin-2-yl]-5-phenyl-1H-pyrrole-3-sulfonamide]: the concentration for half-maximal inhibition (IC50) is less than 500 nM.
Turning to `COc1cc(Br)cnc1NS(=O)(=O)c1c[nH]c(-c2ccccc2)c1` [Cpd 062, N-(5-bromo-3-methoxypyridin-2-yl)-5-phenyl-1H-pyrrole-3-sulfonamide], the half-inhibitory concentration (IC50) was in the range of 500 to 5000 nM.
In the case of `COc1cc(C#N)c(F)cc1NS(=O)(=O)c1c[nH]c(-c2ccccc2)c1` [Cpd 063, N-(4-cyano-5-fluoro-2-methoxyphenyl)-5-phenyl-1H-pyrrole-3-sulfonamide], the IC50 is less than 500 nM.
In the case of `N#Cc1cc(F)c(NS(=O)(=O)c2c[nH]c(-c3ccccc3)c2)c(F)c1` [Cpd 064, N-(4-cyano-2,6-difluoro-phenyl)-5-phenyl-1H-pyrrole-3-sulfonamide] it was 500 to 5000 nM.
On to `N#CCOc1cc(F)c(NS(=O)(=O)c2c[nH]c(-c3ccccc3)c2)cc1F` [Cpd 065, N-[4-(cyanomethoxy)-2,5-difluoro-phenyl]-5-phenyl-1H-pyrrole-3-sulfonamide], for which the half-maximal inhibitory concentration (IC50) is less than 500 nM.
In the case of `N#Cc1ccc(NS(=O)(=O)c2c[nH]c(-c3ccncc3F)c2)c(F)c1` [Cpd 066, N-(4-cyano-2-fluoro-phenyl)-5-(3-fluoro-4-pyridyl)-1H-pyrrole-3-sulfonamide] it was 500 to 5000 nM; in that of `Cc1[nH]cc(S(=O)(=O)Nc2ccc(C#N)cc2F)c1Cc1ccccc1` [Cpd 067, 4-benzyl-N-(4-cyano-2-fluorophenyl)-5-methyl-1H-pyrrole-3-sulfonamide], 5000 to 50000 nM.
To `O=S(=O)(Nc1ncc(Cl)cc1F)c1c[nH]c(-c2ccccc2)c1` [Cpd 068, N-(5-chloro-3-fluoro-2-pyridyl)-5-phenyl-1H-pyrrole-3-sulfonamide] belongs less than 500 nM; to `O=S(=O)(Nc1cccc2c1OCO2)c1c[nH]c(-c2ccccc2)c1` [Cpd 069, N-(1,3-benzodioxol-4-yl)-5-phenyl-1H-pyrrole-3-sulfonamide], 500 to 5000 nM; to `Cc1cc(F)c(NS(=O)(=O)c2c[nH]c(-c3ccccc3)c2)cc1F` [Cpd 070, N-(2,5-difluoro-4-methyl-phenyl)-5-phenyl-1H-pyrrole-3-sulfonamide], less than 500 nM.
As for `O=S(=O)(Nc1cc(F)c(C(F)(F)F)cc1F)c1c[nH]c(-c2ccccc2)c1` [Cpd 071, N-[2,5-difluoro-4-(trifluoromethyl)phenyl]-5-phenyl-1H-pyrrole-3-sulfonamide], the IC50 is less than 500 nM.

The record behind these values is US20240299385A1 (ReWind Therapeutics NV, priority 2021, published 2024).
